Patent US20220251036A1, “DIFLUOROHALOALLYLAMINE SULFONE DERIVATIVE INHIBITORS OF LYSYL OXIDASES, METHODS OF PREPARATION, AND USES THEREOF” (PHARMAXIS LTD., priority 2019, published 2022)
Counter-ions that a name gives are not always drawn.

Assays:
[1] = molecular target: T1, Bovine LOX (Bos taurus, UniProt P33072); assay: LOX inhibition, Amplex Red oxidation assay; type: biochemical; conditions: for IC50: incubation with enzyme 30 min at 37° C, read-out: Bovine LOX Activity IC50
T1 sequence (P33072 170-418): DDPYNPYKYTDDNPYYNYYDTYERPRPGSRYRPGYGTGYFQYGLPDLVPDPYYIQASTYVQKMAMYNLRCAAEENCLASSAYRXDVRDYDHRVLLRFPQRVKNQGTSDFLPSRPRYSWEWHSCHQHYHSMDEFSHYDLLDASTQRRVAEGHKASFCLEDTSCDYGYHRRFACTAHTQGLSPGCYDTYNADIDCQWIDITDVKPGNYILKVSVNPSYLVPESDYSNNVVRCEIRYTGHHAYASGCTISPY
Method: (§1) LOX and LOXL protein family members can be acquired as recombinant active proteins from commercial sources, or extracted from animal tissues like bovine aorta, tendons, pig skin; or prepared from cell cultures. […] The assay was developed using either 384 or 96 well format. Briefly, in a standard black, clear bottom 384 well plate assay 25 μL of a dilution of any of the isoenzymes and orthologues in 1.2 M urea, 50 mM sodium borate buffer (pH 8.2) were added into each well in the presence of 1 μM mofegiline and 0.5 mM pargyline (to inhibit SSAO and MAO-B and MAO-A, respectively; not necessary if the enzyme is from a recombinant or purified form). Test compounds were dissolved in DMSO and tested in a Concentration Response Curve (CRC) with 11 data points, typically in the micromolar or nanomolar range after incubation with the enzyme for 30 min at 37° C. 25 μL of a reaction mixture containing twice the KM concentration of putrescine (Sigma Aldrich, e.g. 20 mM for LOX and LOXL1 or 10 mM for LOXL2 and 4 mM for LOXL3 and LOXL4), 120 μM Amplex Red (Sigma Aldrich) and 1.5 U/mL horseradish peroxidase (Sigma Aldrich) prepared in 1.2 M urea, 50 mM sodium borate buffer (pH 8.2) were then added to the corresponding wells. The above volumes were doubled in the case of 96 wells plate. The fluorescence (RFU) was read every 2.5 min for 30 min at […] 37° C., excitation 565 nm and emission 590 (Optima; BMG labtech). The slope of the kinetics for each well was calculated using MARS data analysis software (BMG labtech) and this value was used to deduce the IC50 value (Dotmatics). The ability of the inventive compounds to inhibit the amine oxidase activity of LOX and other family members is shown in Table 4.

[2] = molecular target: T2, Human recombinant LOXL2 (Homo sapiens, UniProt Q9Y4K0); assay: LOXL2 inhibition, Amplex Red oxidation assay; type: biochemical; conditions: incubation with enzyme 30 min at 37° C; read-out: Human recombinant LOXL2 Activity IC50
T2 sequence (Q9Y4K0 26-774): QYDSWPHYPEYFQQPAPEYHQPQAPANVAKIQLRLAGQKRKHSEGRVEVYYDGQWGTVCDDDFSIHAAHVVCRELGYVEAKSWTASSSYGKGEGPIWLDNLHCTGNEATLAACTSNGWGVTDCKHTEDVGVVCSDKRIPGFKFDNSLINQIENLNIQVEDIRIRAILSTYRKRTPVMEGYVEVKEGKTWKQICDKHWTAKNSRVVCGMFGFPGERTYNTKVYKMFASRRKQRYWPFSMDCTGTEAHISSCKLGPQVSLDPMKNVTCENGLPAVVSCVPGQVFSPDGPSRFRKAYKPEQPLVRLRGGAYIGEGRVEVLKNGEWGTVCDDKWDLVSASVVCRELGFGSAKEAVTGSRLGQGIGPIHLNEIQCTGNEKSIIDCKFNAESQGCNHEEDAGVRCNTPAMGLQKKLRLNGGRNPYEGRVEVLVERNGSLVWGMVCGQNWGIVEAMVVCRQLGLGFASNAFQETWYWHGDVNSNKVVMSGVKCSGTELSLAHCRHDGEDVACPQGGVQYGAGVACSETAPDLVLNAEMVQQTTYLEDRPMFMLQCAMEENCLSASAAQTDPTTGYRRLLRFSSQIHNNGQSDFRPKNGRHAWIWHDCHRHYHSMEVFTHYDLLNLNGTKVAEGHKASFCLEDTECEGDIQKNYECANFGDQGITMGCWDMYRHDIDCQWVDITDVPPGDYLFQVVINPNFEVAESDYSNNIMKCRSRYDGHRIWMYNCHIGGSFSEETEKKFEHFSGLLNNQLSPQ
Method: as §1

IC50 [1] [µM] | IC50 [2] [µM] | Compound | inhibitory activity (in words) ([1]; LOX / LOXL preparations, compared with Compound 1)
23.1 | 2.1 | NC/C=C(/F)C(F)(F)S(=O)(=O)c1ccccc1 [Compound 1(E)] | significantly reduced inhibitory activity
4.4 |  | CS(=O)(=O)c1cccc(Oc2cccc(S(=O)(=O)C(F)(F)/C(F)=C/CN)c2)c1 [Compound 20, (Z)-3,4,4-trifluoro-4-((3-(3-(methylsulfonyl)phenoxy)phenyl)sulfonyl)but-2-en-1-amine] | 
3.9 | 0.5 | Cc1cccc(S(=O)(=O)C(F)(F)/C(F)=C/CN)c1 [Compound 13, (Z)-3,4,4-trifluoro-4-(m-tolylsulfonyl)but-2-en-1-amine] | 
22.8 | 2 | NC/C=C(\F)C(F)(F)S(=O)(=O)c1ccccc1N1CCS(=O)(=O)CC1 [Compound 7, (Z)-4-(2-((4-amino-1,1,2--trifluorobut-2-en-1-yl)sulfonyl)phenyl)thiomorpholine 1,1-dioxide, hydrochloride] | 
11.1 | 0.7 | CS(=O)(=O)c1cccc(S(=O)(=O)C(F)(F)/C(F)=C/CN)c1 [Compound 3, (Z)-3,4,4-trifluoro-4-((3-(methylsulfonyl)phenyl)sulfonyl)but-2-en-1-amine] | 
3.6 | 0.7 | [2H]c1c([2H])c([2H])c(S(=O)(=O)C(F)(F)/C(F)=C/CN)c([2H])c1[2H] [Compound 18, (Z)-3,4,4-trifluoro-4-((phenyl-d5)sulfonyl)but-2-en-1-amine] | 
5.9 | 0.7 | Cc1occc1S(=O)(=O)C(F)(F)/C(F)=C/CN [Compound 15, (Z)-3,4,4-trifluoro-4-((2-methylfuran-3-yl)sulfonyl)but-2-en-1-amine] | 
> 30 | 1.7 | NC/C=C(\F)C(F)(F)S(=O)(=O)c1ccccc1O [Compound 11, (Z)-2-((4-amino-1,1,2-trifluorobut-2-en-1-yl)sulfonyl)phenol] | 
